Entries after “also recorded” stand apart in the source; their conditions may differ.
Key:
Type in all cases: in vivo, human
[1] = system: healthy elderly subjects with a mild memory complaint; test: Geriatric Depression Scale; conditions: 6 month study, not different between groups
Text: (§1) During the Screening Period, subjects were selected on the basis of specific inclusion and exclusion criteria, including a screening Logical Memory sub-test of the Wechsler Memory Scale (WMS III). See e.g., Wechsler, D., Administration and Scoring Manual, 3rd ed. San Antonio, Tex.: Harcourt Brace & Company, 1997. In addition to the Logical Memory sub-test, the Mini-Mental State Examination (MMSE), Geriatric Depression scale, and a test of visual acuity and a DHA Food Frequency Questionnaire were administered to all subjects at screening. See e.g., Folstein et al., Pyschiatr. Res. 12:189-198 (1975); Yesavage J., et al., J Psychiatr. Res. […] (1982). Eligible subjects who meet the screening criteria were given a pre-baseline training session with the computerized cognitive battery, CANTAB.
(§2) Other secondary measures included self-assessment tests of memory (Frequency of Forgetting-10 scale) (Zelinski, E. M. et al., Aging and Mental Health […]), Alzheimer's Disease Cooperative Study-Activities of Daily Living Prevention Instrument (ADCS-ADL PI scale) (Galasko, D., Alzheimer Dis. Assoc. Disord. 20:S152-69 (200)), Mini-Mental State Examination (MMSE) (Folstein et al., Pyschiatr. Res. 12:189-198 (1975) and the Geriatric Depression Scale (Yesavage, J., et al., J Psychiatr. Res. […]).

[2] = system: healthy elderly subjects with a mild memory complaint; test: Safety and tolerability of the DHA dose
Description: (§3) The effects of DHA (about 900 mg/day) versus placebo was tested to determine whether cognitive measures of memory, attention, and executive function were improved, utilizing the Cambridge Neuropsychological Test Automated Battery (CANTAB) cognitive battery, in healthy elderly subjects with a mild memory complaint. One objective of the study was to determine the effect of DHA administration versus placebo on improving cognitive functions (i.e., working memory, memory retention, attention, processing speed, and executive function) in healthy elderly with a subjective memory complaint. Another objective of the study included determining the effects of DHA on visual acuity, levels of plasma phospholipids, and evaluating the safety and tolerability of the DHA dose administered.
(§4) Pre-baseline testing with the CANTAB occurred to serve as a training session and to familiarize the subject with the computer system. Morris R, et al., Computer Aided Assessment of Dementia: Comparative Studies of Neuropsychological Deficits in Alzheimer Type Dementia and Parkinson's Disease (1987). Seven (+/−2) days following this pre-baseline testing, baseline measurements were taken, including baseline laboratory measures, vital signs, and the CANTAB cognitive battery. […] Compliance was assessed by food frequency questionnaires, returned capsule counts, and by plasma DHA levels (taken at 24 weeks). […]

[3] = system: healthy elderly subjects with a mild memory complaint; test: CANTAB Pattern Recognition Memory (PRM) test; conditions: about 900 mg/d, 24 weeks
Description: as §3, with “Another objective of the study included determining the effects of DHA on visual acuity, levels of plasma phospholipids, and evaluating the safety and tolerability of the DHA dose administered.” left out
(§5) The secondary efficacy endpoints included: • CANTAB tests of executive function and planning: Spatial Working Memory […] and Stockings of Cambridge (SOC) • CANTAB Verbal Recognition Memory test (VRM) • CANTAB Pattern Recognition test (PRM) • Visual acuity (measured by Snellen Eye chart; corrected vision) • Memory Functioning Questionnaire: Frequency of Forgetting-10 (Self-rating scale) • Activities of Daily Living (ADCS-ADL PI) scale (Self-rating) • Clinical measures of cognitive function and computerized assessments were administered by (CANTAB) certified examiners at each site blinded to the subject's treatment. • Description of CANTAB Battery of tests […]

[4] = system: healthy elderly subjects with a mild memory complaint; test: ADL (ADCS-ADL PI) and self-assessment of memory (Frequency of Forgetting-10); conditions: 6 month study
Text: (§6) The secondary efficacy endpoints included: • CANTAB tests of executive function and planning: Spatial Working Memory […] and Stockings of Cambridge (SOC) • CANTAB Verbal Recognition Memory test (VRM) • CANTAB Pattern Recognition test (PRM) • Visual acuity (measured by Snellen Eye chart; corrected vision) • Memory Functioning Questionnaire: Frequency of Forgetting-10 (Self-rating scale) • Activities of Daily Living (ADCS-ADL PI) scale (Self-rating) • Clinical measures of cognitive function and computerized assessments were administered by (CANTAB) certified examiners at each site blinded to the subject's treatment. • Description of CANTAB Battery of tests
as §2

[5] = Vital signs (heart rate, blood pressure, body weight); conditions: about 900 mg/d, 24 weeks
Description: as §3
(§7) The DHA group was provided 800 mg soft-gelatin capsules, each containing about 300 mg DHA as a triglyceride from algal oil (DHASCO®-S oil, 40% DHA). In addition to 40% DHA, DHASCO®-S oil was formulated to contain 40-60% saturated, mono- and polyunsaturated fatty acids, 400 ppm ascorbyl palmitate, 2000 ppm mixed tocopherols, 2000 ppm rosemary extract, 3% orange-flavoring, and 1% natural masking agent. Subjects were instructed to take three 800 mg capsules/day, i.e., about 900 mg DHA/day.
as §4, with “battery. At the baseline session, subjects were stratified based on age (55-69; ≧70) and randomly assigned to receive about 900 mg DHA, or placebo.” for “battery.”

[6] = system: healthy elderly subjects with a mild memory complaint; test: CANTAB Paired Associate Learning (PAL) test, randomized double-blind placebo-controlled 24 week study
Description: as §3
The study was a randomized, double-blind, placebo-controlled, parallel, multi-center design study to evaluate the effects of an oral dose of DHA on cognitive functions in healthy elderly with a subjective memory complaint. The study consisted of a screening/baseline period, and a 24 week treatment period.
as §7
Pre-baseline testing with the CANTAB occurred to serve as a training session and to familiarize the subject with the computer system. Morris R, et al., Computer Aided Assessment of Dementia: Comparative Studies of Neuropsychological Deficits in Alzheimer Type Dementia and Parkinson's Disease (1987). Seven (+/−2) days following this pre-baseline testing, baseline measurements were taken, including baseline laboratory measures, vital signs, and the CANTAB cognitive battery. At the baseline session, subjects were stratified based on age (55-69; ≧70) and randomly assigned to receive about 900 mg DHA, or placebo. Capsules, either DHA or placebo, as randomly assigned, was given to each subject at the end of the baseline visit. Subjects were instructed to take 3 capsules everyday for the ensuing 24 weeks and were supplied initially with 3 months' worth of capsules. At the end of 4 weeks, subjects returned to the site for compliance and safety assessments. Subjects returned to the site at 12 weeks for safety and efficacy assessments and were re-supplied with the final 3 months' worth of capsules. Subjects returned to the site at 24 weeks for the “end of study” efficacy and safety assessments. Compliance was assessed by food frequency questionnaires, returned capsule counts, and by plasma DHA levels (taken at 24 weeks). The CANTAB cognitive battery consists of tests of memory, learning, attention, problem-solving, and executive function (i.e., planning and organizational skills). See e.g., Fowler et al., Applied Neuropsychology 2:72-78 (1995); Robbins et al., Dementia 5:266-281 (1994); and De Luca et al., J Clinical and Experimental Neuropsychology 25:242-254 (2003).
A primary efficacy endpoint of the CANTAB test score on the Paired Associate Learning (PAL) test at 24 weeks of treatment was used as the primary efficacy outcome. The primary analysis was adjusted for baseline scores, education, site, and the stratification factor of age. Secondary analyses were based on the model above with the addition of the factor, concomitant statin medication use. The PAL subtest of the CANTAB is a test of visuospatial cued recall memory that detects changes in episodic memory. See e.g., de Jager et al., Psychological Medicine 32:483-491 (2002). […]

[7] = system: healthy elderly subjects with a mild memory complaint; test: CANTAB Stockings of Cambridge (SOC) test; conditions: about 900 mg/d, 24 weeks
Description: as §3, with “Another objective of the study included determining the effects of DHA on visual acuity, levels of plasma phospholipids, and evaluating the safety and tolerability of the DHA dose administered.” left out
as §5

[8] = system: healthy elderly subjects with a mild memory complaint; test: CANTAB Verbal Recognition Memory (VRM) test
Description: as §3, §7, §6
Additional tests are included in CANTABeclipse and are available in the CANTABelect batteries. […]

[9] = system: healthy elderly subjects with a mild memory complaint; test: CANTAB Spatial Working Memory (SWM) test; conditions: about 900 mg/d, 24 weeks
Description: as §3, with “Another objective of the study included determining the effects of DHA on visual acuity, levels of plasma phospholipids, and evaluating the safety and tolerability of the DHA dose administered.” left out
as §5

[10] = system: healthy elderly subjects with a mild memory complaint; test: Mini-Mental State Examination (MMSE); conditions: 6 month study, not different between groups
Text: as §1, §2

[11] = Plasma phospholipid fatty acid levels
Description: as §7
Blood samples of the subjects were collected at baseline and at the week 24 or “end of study” visit to determine phospholipid levels. Samples were collected into 10 ml vacutainer EDTA tubes, centrifuged at 3000 rpm and plasma was stored at −80° C. until analyzed. Plasma phospholipid fatty acids were analyzed as described previously. See, e.g., Arterburn, L. M., et al., Lipids 42:1011-1024 (2007). The fatty acid profiles were expressed as a percent of the total […] of fatty acid (weight percent).

- plasma phospholipid DHA change, diff. score versus placebo ([11]; 24 weeks, p<0.001): 3.15±0.16
- plasma phospholipid DPAn-6, mean change ([11]; 24 weeks, placebo −0.004, p<0.001): 0.37 weight %
- plasma phospholipid EPA, mean change ([11]; 24 weeks, placebo −0.06, p<0.001): 0.16 weight %
- plasma phospholipid arachidonic acid (ARA), mean change from baseline ([11]; 24 weeks, placebo −0.12, p<0.001): −1.37 weight %
- plasma phospholipid ARA levels, decrease ([11]; about 900 mg/day, six months): 1.4 weight %
- plasma phospholipid DHA, increase from baseline ([11]; week 24, about 900 mg/day, placebo −0.08): 3.2 weight %
- plasma phospholipid DHA level after treatment ([11]; week 24, baseline 3.2 weight %, p<0.001): 6.4 weight %
SMILES: CC/C=C\C/C=C\C/C=C\C/C=C\C/C=C\C/C=C\CCC(=O)O [DHA, (all-Z)-4,7,10,13,16,19-docosahexaenoic acid]
- Geriatric Depression scale [1]: unchanged
- treatment-related SAEs ([2]; about 900 mg/d, 24 weeks): no treatment-related SAEs were reported
- tolerability ([2]; about 900 mg/day algal DHA, six months): well tolerated
- CANTAB Pattern Recognition test responses, DHA versus placebo [3]: not significantly different
- ADL assessment [4]: unaffected by DHA supplementation
- self-perceptive memory assessment [4]: unaffected by DHA supplementation
- blood pressure, DHA versus placebo [5]: remained unchanged
- body weight, DHA versus placebo [5]: remained unchanged
- heart rate, change from baseline ([5]; placebo −1 BPM, p<0.03): −3.2 BPM
- errors made on the PAL 6 pattern stage test, diff. score versus placebo, change from baseline ([6]; about 900 mg/d DHA, six months, ITT analysis, p<0.03): −1.63±0.76
- PAL primary endpoint, diff. score versus placebo, compliers analysis ([6]; about 900 mg/d, week 24, 95% CI −3.1, 0.4, p<0.13, not significant): −1.3±0.89
- improvement in PAL test performance compared to age-associated normative data ([6]; about 900 mg/day, 6 months, placebo 3.6 year): 7 year
- reduction in CANTAB PAL 6 pattern errors compared to the decrease with placebo ([6]; about 900 mg/day, six months): ~2 fold
- mean PAL errors after 6 months of DHA supplementation ([6]; baseline 13.4±11.5): 8.8±9.9
- normative age corresponding to mean PAL errors after 6 months ([6]; baseline 72.6 years): 65.6 years of age
- changes in executive function (SOC) [7]: not found
- VRM delayed recognition, change from baseline correct responses, diff. versus placebo ([8]; about 900 mg/d, p<0.02): 0.4±0.18
- VRM immediate recognition, change from baseline correct responses, diff. versus placebo ([8]; about 900 mg/d, p<0.02): 0.4±0.17
- CANTAB Verbal recognition memory, effect of DHA supplementation ([8]; about 900 mg/day, 6 months): modestly improved
- Spatial Working Memory (SWM) test responses, DHA versus placebo [9]: not significantly different; also recorded: not found
- MMSE, global cognitive function [10]: unchanged

Source: US20100203123A1, “METHODS FOR IMPROVING COGNITIVE FUNCTION AND DECREASING HEART RATE” (MARTEK BIOSCIENCES CORPORATION, priority 2009, published 2010)
